Experiments:
[1] = tested on: Cabernet Franc grapevines; assay: Fall foliar spray of mature Cabernet Franc grapevines, bud break the following spring (BBCH rating); type: in vivo; set-up: key to Average BBCH rating of bud developmental stages: BBCH scale: 1 = first bud swelling, 99 = defoliated, re-entering dormancy; conditions: for Average BBCH rating of bud developmental stages: 300 ppm in 0.1% Brij 98, fall foliar application; for Delay of bud break the following spring / Impact on bud mortality: foliar application at about 0.125 grams per vine in the fall
Method: (§1) A study was conducted to determine the effect of spraying grapevines with ABA analogs in the fail on bud break the following spring. Mature Cabernet Franc grapevines growing in a research vineyard in Benton Harbor, Mich. were sprayed to drip with surfactant alone or surfactant and ABA analog on Oct. 25, 2008. Vines were sprayed with approximately 300 ml (113 grams ABA analog/acre) applied to each of 9 vines per treatment arranged in three replicates of three vines each. The following spring prior to bud break the vines were pruned to 3-6 buds per spur and bud break of 40 buds per vine (4 buds on each of 10 spurs) was rated periodically using the BBCH (Biologische Bundesanstalt, Bundessortenamt und Chemische Industrie) scale of development where a rating of 1 represents the first sign of bud swelling and 99 represents a defoliated plant re-entering dormancy at the end of the growing season.

[2] = tested on: Cabernet Franc grapevines; assay: Fall foliar spray of Cabernet Franc grapevines, fruit maturity the following fall (juice pH and Brix); type: in vivo; conditions: for Brix of juice / pH of juice: 300 ppm in 0.1% Brij 98, fall foliar application, grapes harvested on Oct. 24, 2009; for Effect on maturation of the following crop of grapes (juice pH and Brix): foliar application at about 0.125 grams per vine in the fall
Method: as §1
When the control fruit had reached maturity three clusters of grapes were randomly harvested from each 3 vine replicate. Brix and pH measurements were made of the juice expressed by hand squeezing the grape clusters. Both the pH and Brix readings were lower for the grapes from the ABA analog treated vines indicating a delay of fruit maturity.

[3] = tested on: Cabernet Franc grapevines; assay: Fall foliar spray of Cabernet Franc grapevines with PBI-425 or PBI-524, broken buds the following spring; type: in vivo; conditions: for Average number of broken buds per vine: Apr. 11, 2012; for Effect on bud break the following spring / Impact on bud mortality: foliar application at about 0.03-0.3 grams per vine in the fall
Method: A study was conducted to determine the elect of spraying Cabernet Franc grapevines with ABA analog PBI-425 or PBI-524 in the fall on bud break the following spring. Mature Cabernet Franc grapevines growing in a research vineyard in Benton Harbor, Mich. were sprayed to drip with surfactant alone or surfactant and ABA analog on Oct. 21, 2011. Vines were sprayed with approximately 300 ml applied to each of 9 vines per treatment arranged in three replicates of three vines each. Applied at about 100 gallons per acre 100 ppm treatment represents 37.8 grams per acre and 1000 ppm represents 378.4 grams per acre. In the spring after treatment prior to bud break the vines were pruned to 3-6 buds per spur and bud break of the entire vine was determined in the spring.

[4] = tested on: Concord grape vines; assay: Spring spray of eco-dormant field grown Concord grape vines, bud break; type: in vivo, Concord grapevines; conditions: 100 ppm PBI-429 plus 0.5% Brij 98, sprayed 2 times in spring
Method: A study was conducted to evaluate the effect of spraying eco-dormant Concord grape vines with ABA or ABA analog plus surfactants on bud break. Mature field grown Concord grape vines were sprayed to runoff 2 times in the spring after pruning and before bud swell. Three replicates of 3 vines each were treated with each treatment solution. Treatments were arranged in a randomized complete block design down a single vineyard row, Bud break was monitored by counting the number of broken buds of the distal 5 buds on 4 proximal canes on the middle vine of each 3 vine replicate. Bud break was only very slightly delayed by any of the treatments compared to the water sprayed control (Table 1).

[5] = tested on: Concord grapevines; assay: Repeated spray of potted Concord grapevines during the bud break period; type: in vivo; conditions: for Average number of broken buds per vine: 100 ppm in 0.05% Silwet L77, repeated spray
Method: A study was conducted to determine the effect of spraying Concord grapevines with ABA or ABA analog PBI-429 during bud break. Potted concord grapevines were placed in greenhouse conditions to promote bud break and the vines were repeatedly sprayed with ABA or ABA analog solutions. The vines were sprayed 2, 4, 8, 12 and 14 days after exposure of the vines into bud break promoting temperatures. Bud break was rated 6, 7, 8, 11, 12, 13, 14, 15, 19 and 20 days after vines were placed in warm bud break promoting conditions.

[6] = tested on: Concord grapevines; assay: Fall soil drench of potted Concord grapevines, bud break the following spring; type: in vivo; set-up: key to Average rating of bud break (1-6 scale): 1 = no growth to 6 = three or more leaves showing; conditions: for Average rating of bud break (1-6 scale): 100 ppm (100 mg/pot) fall soil drench
Method: A study was conducted to determine the effect of application of ABA or ABA analog as a soil drench in the fall on bud break of potted Concord grapevines the following spring. Two year old eco-dormant Concord grapevines were obtained from a Concord Nurseries in the spring. Bare-root vines were planted in 14 liter pots filled with Promix BX (available from Premier Horticulture Inc. Quakertown, Pa.) and grown outside for about 5 months (May October) prior to treatment. Plants received irrigation as needed and fertilized weekly (1 g/L all purpose fertilizer 20-20-20, The Scotts Company, Marysville, Ohio). Uniform plants were selected for the study. A total of 1000 mL of water or chemical solution was applied to the soil of each plant.
After chemical treatment, the ten replicate plants per treatment were arranged in a randomized complete block experimental design. The potted vines were surrounded by bark chips the depth of the soil in the pot to insulate the roots and prevent cold damage. The plants became dormant for the winter. In the following spring the vines were pruned to 5 buds per vine before bud break and bud break was monitored over time (Table 4). The buds were rated for bud break periodically on a scale from 1 for no growth to 6 for three or more leaves showing
Potted Concord grapevines were treated with 1000 mL water, solution containing 1000 mg ABA or solution containing 100 mg PBI-429. The dose of RBI-429 was used at one-tenth of ABA dose based on the preliminary results.

[7] = tested on: PF-11 nectarine trees; assay: Fall foliar spray of PF-11 nectarine trees, bud break the following spring; type: in vivo
Method: (§2) A study was conducted to determine the effect of spraying nectarine trees with ABA or ABA analogs in the fall on bud break the following spring. Mature PF-11 nectarine trees were sprayed to drip with surfactant alone or surfactant and ABA or ABA analog on Oct. 19, 2009. Trees were sprayed with approximately 500 ml (20.5 grams ABA analog/acre) applied to each of 6 trees per treatment arranged in a randomized complete block design. The following spring bud break on pre-selected branches was monitored.

[8] = tested on: PF-11 nectarine trees; assay: Fall foliar spray of PF-11 nectarine trees, fruit number per tree the following spring; type: in vivo
Method: as §2

[9] = 100 ppm in 0.1% Silwet Brij 98, fall foliar application

SMILES: C#CC1(C)CC(=O)C=C(C)C1(O)C=CC(C)=CC(=O)O (racemic) [PBI-524]
- Average BBCH rating of bud developmental stages ([1]; May 1, 2009): 0.0
- Average BBCH rating of bud developmental stages ([1]; May 5): 0.4
- Average BBCH rating of bud developmental stages ([1]; May 12): 1.0
- Average BBCH rating of bud developmental stages ([1]; May 21): 3.7
- Average BBCH rating of bud developmental stages ([1]; May 28): 6.7
- Delay of bud break the following spring [1]: about 15 days
- Impact on bud mortality [1]: without apparent impact on bud mortality
- Brix of juice [2]: 19.37
- pH of juice [2]: 3.14
- Effect on maturation of the following crop of grapes (juice pH and Brix) [2]: delayed maturation
- Average number of broken buds per vine [3, 9]: 13
- Average number of broken buds per vine ([3]; 1000 ppm in 0.1% Silwet Brij 98, fall foliar application): 2
- Effect on bud break the following spring [3]: delayed bud break
- Impact on bud mortality [3]: without apparent impact on bud mortality

SMILES: C#CC1(C)CC(=O)C=C(C)C1(O)C=CC(C)=CC(=O)O (centres unmarked) [PBI-425]
- Average number of broken buds per vine [3, 9]: 11
- Effect on bud break the following spring [3]: delayed bud break
- Impact on bud mortality [3]: without apparent impact on bud mortality

SMILES: C#CC1(C)CC(=O)C=C(C)C1(O)/C=C/C(C)=C\C(=O)OC (centres unmarked) [PBI-429, 8′acetylene-ABA methyl ester]
- Average percent broken buds ([4]; April 24): 8%
- Average percent broken buds ([4]; April 30): 18%
- Average number of broken buds per vine ([5]; 6 days after warming): 0.7
- Average number of broken buds per vine ([5]; 7 days after warming): 0.7
- Average number of broken buds per vine ([5]; 8 days after warming): 1.7
- Average number of broken buds per vine ([5]; 11 days after warming): 2.5
- Average number of broken buds per vine ([5]; 12 days after warming): 2.5
- Average number of broken buds per vine ([5]; 13 days after warming): 3.0
- Average number of broken buds per vine ([5]; 14 days after warming): 3.0
- Average number of broken buds per vine ([5]; 15 days after warming): 4.0
- Average number of broken buds per vine ([5]; 19 days after warming): 4.3
- Average number of broken buds per vine ([5]; 20 days after warming): 4.3
- Effect on average number of broken buds over time ([5]; repeated spray application during the bud break period): not significantly impacted
- Delay of bud break compared to ABA treated or untreated vines ([6]; 100 mg fall soil drench): about 2 weeks
- Average rating of bud break (1-6 scale) ([6]; Apr. 23, 2008): 1.0
- Average rating of bud break (1-6 scale) ([6]; April 28): 1.0
- Average rating of bud break (1-6 scale) ([6]; April 30): 1.0
- Average rating of bud break (1-6 scale) ([6]; May 2): 1.0
- Average rating of bud break (1-6 scale) ([6]; May 5): 1.0
- Average rating of bud break (1-6 scale) ([6]; May 7): 1.0
- Average rating of bud break (1-6 scale) ([6]; May 9): 1.0
- Average rating of bud break (1-6 scale) ([6]; May 12): 1.0
- Average rating of bud break (1-6 scale) ([6]; May 14): 1.0
- Average rating of bud break (1-6 scale) ([6]; May 16): 1.0
- Average rating of bud break (1-6 scale) ([6]; May 19): 1.2
- Average rating of bud break (1-6 scale) ([6]; May 21): 1.2
- Average rating of bud break (1-6 scale) ([6]; May 23): 1.8
- Average rating of bud break (1-6 scale) ([6]; May 28): 2.7
- Average BBCH rating of bud developmental stages ([1]; May 1, 2009): 0.1
- Average BBCH rating of bud developmental stages ([1]; May 5): 0.4
- Average BBCH rating of bud developmental stages ([1]; May 12): 1.0
- Average BBCH rating of bud developmental stages ([1]; May 21): 3.2
- Average BBCH rating of bud developmental stages ([1]; May 28): 6.0
- Delay of bud break the following spring [1]: about 15 days
- Impact on bud mortality [1]: without apparent impact on bud mortality
- Brix of juice [2]: 19.32
- pH of juice [2]: 3.16
- Effect on maturation of the following crop of grapes (juice pH and Brix) [2]: delayed maturation
- Potency relative to ABA in delaying bud break ([7]; 100 ppm PBI-429 versus 10,000 ppm ABA, fall foliar application): about 100 times
- Percentage of broken floral buds ([7]; 100 ppm in 0.1% Brij 98, fall foliar application, April 8): 56 Percentage
- Average number of fruit per tree ([8]; 100 ppm in 0.1% Brij 98, fall foliar application, June 10): 75
- Effect on number of fruit per tree the following spring ([8]; fall foliar application): reduced the number of fruit per tree
